Source: patent publication US7863328B2, “Phenylbenzoic acid derivatives, processes for the preparation thereof, pharmaceutical compositions comprising them, and therapeutic uses thereof” (Merck Patent GmbH, priority 2005, dated 2011)

Molecular target: T1, chimeric protein PPARγ-Gal4 (Homo sapiens, UniProt P37231)
T1 construct: expressed in transfected cells; host or cells: CV-1 cells (monkey kidney cells)
Test: PPARγ-Gal4 transactivation test (luciferase reporter) in cotransfected CV-1 cells
Type: cell-based
Experimental: The measurement of the PPAR activation was performed according to a technique described by Lehmann et al. (J. Biol. Chem., 270, (1995), 12953-12956).
CV-1 cells (monkey kidney cells) are cotransfected with an expression vector for the chimeric protein PPARγ-Gal4 and with a “reporter” plasmid that allows expression of the luciferase gene placed under the control of a promoter comprising Gal4 response elements.
The cells are seeded in 96-well microplates and cotransfected using a commercial reagent with the reporter plasmid (pG5-tk-pGL3) and the expression vector for the chimeric protein (PPARγ-Gal4). After incubation for 4 hours, whole culture medium (comprising 10% foetal calf serum) is added to the wells. After 24 hours, the medium is removed and replaced with whole medium comprising the test products. The products are left in contact with the cells for 18 hours. The cells are then lysed and the luciferase activity is measured using a luminometer. A PPARγ activation factor can then be calculated by means of the activation of the expression of the reporter gene induced by the product (relative to the control cells that have received no product).
In the absence of the PPARγ ligand binding domain (vector expressing Gal4 alone), the luciferase activity measured in the presence of this product is zero.
The following transactivation result was obtained with a concentration of 30 μM on PPARγ.
The transactivation test using the expression of a chimeric protein Gal-4-PPARγ makes it possible to determine also whether an agonist functions as a “full” agonist or as a “partial” agonist in this system.
An agonist is “partial” in this system if it induces a weaker response, i.e. it has lower efficacy, than rosiglitazone, which is a “full” agonist. In concrete terms, in our system, the transactivation obtained at the plateau with a partial agonist will be between 20% and 50% of the maximum response (efficacy) at the plateau of rosiglitazone.

T1 sequence (P37231 238-503 limits assumed, change not shown): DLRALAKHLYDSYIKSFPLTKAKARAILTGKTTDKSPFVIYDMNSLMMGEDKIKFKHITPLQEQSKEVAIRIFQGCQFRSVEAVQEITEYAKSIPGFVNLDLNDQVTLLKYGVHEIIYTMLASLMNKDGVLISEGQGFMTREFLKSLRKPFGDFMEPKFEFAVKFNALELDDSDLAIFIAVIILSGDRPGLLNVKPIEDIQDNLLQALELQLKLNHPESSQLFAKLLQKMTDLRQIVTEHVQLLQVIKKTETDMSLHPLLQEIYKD
T1 sequence (P04386 1-147 partner limits assumed): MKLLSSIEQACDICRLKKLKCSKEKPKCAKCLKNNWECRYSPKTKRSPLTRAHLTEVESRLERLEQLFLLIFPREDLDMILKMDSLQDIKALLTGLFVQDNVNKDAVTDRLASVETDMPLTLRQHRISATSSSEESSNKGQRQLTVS

Row | Activation factor of the chimeric protein PPARγ-Gal4 (concentration 30 μM, 18 hours contact, relative to control cells that have received no product (control = 1)) | SMILES | Concentration to reach the maximum stimulation of the PPARγ chimeric protein (Gal4-PPARγ transactivation, plateau) [µM] | Emax (transactivation at the plateau as % of the maximum response (efficacy) of rosiglitazone, read-out: Maximum stimulation of the PPARγ chimeric protein obtained with rosiglitazone) [%]
1 | – | Cc1oc(-c2ccccc2)nc1COc1cc2c(cc1-c1ccc(C(=O)O)cc1)CCC2=O [Example 4, 4-[6-(5-Methyl-2-phenyloxazol-4-ylmethoxy)-1-oxoindan-5-yl]-benzoic acid] | 6.25 | 23
2 | 16 | Cc1cc(COc2cc3c(cc2-c2ccc(C(=O)O)cc2)CCC3=O)no1 [Example 29, 4-[6-(5-methylisoxazol-3-ylmethoxy)-1-oxoindan-5-yl]benzoic acid] | – | –
